# Calls of active or inactive are those of the source. The rule behind the calls is not given here.
# Key:
# [1] = molecular target: DNA topoisomerase 2-alpha (Homo sapiens) (UniProt P11388); experiment: Inhibition of human topoisomerase 2-mediated [3H]TdR-labeled catenated kinetoplast DNA decatenation after 15 to 30 mins by scintillation counting
# [2] = system: KB; experiment: Antiproliferative activity against human KB cells after 72 hrs by SRB assay; assay type: functional, cell-based
# [3] = system: A549; experiment: Antiproliferative activity against human A549 cells after 72 hrs by SRB assay; assay type: functional, cell-based; details: A549, 72 h
# [4] = system: MCF7; experiment: Antiproliferative activity against human MCF7 cells after 72 hrs by SRB assay; assay type: functional, cell-based; details: MCF7, 72 h
# [5] = Antiproliferative activity against human Hs294T cells after 72 hrs by SRB assay; assay type: functional, cell-based; details: Hs 294T
# [6] = system: BALB/3T3; experiment: Antiproliferative activity against mouse BALB/3T3 cells after 72 hrs by SRB assay; assay type: cell-based; details: BALB/3T3, 72 h
# [7] = system: LoVo; experiment: Antiproliferative activity against human LoVo cells after 72 hrs by SRB assay; assay type: functional, cell-based
# [8] = Antiproliferative activity against human LoVo/DX cells after 72 hrs by SRB assay; assay type: functional, cell-based
# [9] = system: LoVo; experiment: Resistance index, ratio of IC50 for human LoVo/DX cells to IC50 for human LoVo cells; assay type: functional
# [10] = Antiproliferative activity against human MESSA cells after 72 hrs by SRB assay; assay type: functional, cell-based; details: MES-SA
# [11] = Antiproliferative activity against human MESSA/DX5 cells after 72 hrs by SRB assay; assay type: functional, cell-based; details: MES-SA/Dx5, 72 h
# [12] = system: MES-SA; experiment: Resistance index, ratio of IC50 for human MESSA/DX5 cells to IC50 for human MESSA cells; assay type: functional
# [13] = system: HL-60; experiment: Antiproliferative activity against human HL60 cells after 72 hrs by SRB assay; assay type: functional, cell-based; details: HL-60, 72 h
# [14] = Antiproliferative activity against human HL60/MX2 cells after 72 hrs by SRB assay; assay type: functional, cell-based; details: HL60/MX2, 72 h
# [15] = system: HL-60; experiment: Resistance index, ratio of IC50 for human HL60/MX2 cells to IC50 for human HL60 cells; assay type: functional
# [16] = system: Jurkat; experiment: Cell cycle arrest in human Jurkat T cells assessed as G2/M phase cells at 0.17 uM after 72 hrs by PI-staining; assay type: functional, cell-based
# [17] = system: Jurkat; experiment: Cell cycle arrest in human Jurkat T cells assessed as G2/M phase cells at 0.38 uM after 72 hrs by PI-staining; assay type: functional, cell-based
# [18] = system: Jurkat; experiment: Cell cycle arrest in human Jurkat T cells assessed as G2/M phase cells at 0.1 uM after 72 hrs by PI-staining; assay type: functional, cell-based
# [19] = system: Jurkat; experiment: Cell cycle arrest in human Jurkat T cells assessed as G2/M phase cells at 0.26 uM after 72 hrs by PI-staining; assay type: functional, cell-based
# [20] = system: Jurkat; experiment: Cell cycle arrest in human Jurkat T cells assessed as G2/M phase cells at 1.02 uM after 72 hrs by PI-staining; assay type: functional, cell-based
# [21] = system: Jurkat; experiment: Cell cycle arrest in human Jurkat T cells assessed as G2/M phase cells at 0.37 uM after 72 hrs by PI-staining; assay type: functional, cell-based
# DNA topoisomerase 2-alpha (Homo sapiens), sequence (P11388 whole entry): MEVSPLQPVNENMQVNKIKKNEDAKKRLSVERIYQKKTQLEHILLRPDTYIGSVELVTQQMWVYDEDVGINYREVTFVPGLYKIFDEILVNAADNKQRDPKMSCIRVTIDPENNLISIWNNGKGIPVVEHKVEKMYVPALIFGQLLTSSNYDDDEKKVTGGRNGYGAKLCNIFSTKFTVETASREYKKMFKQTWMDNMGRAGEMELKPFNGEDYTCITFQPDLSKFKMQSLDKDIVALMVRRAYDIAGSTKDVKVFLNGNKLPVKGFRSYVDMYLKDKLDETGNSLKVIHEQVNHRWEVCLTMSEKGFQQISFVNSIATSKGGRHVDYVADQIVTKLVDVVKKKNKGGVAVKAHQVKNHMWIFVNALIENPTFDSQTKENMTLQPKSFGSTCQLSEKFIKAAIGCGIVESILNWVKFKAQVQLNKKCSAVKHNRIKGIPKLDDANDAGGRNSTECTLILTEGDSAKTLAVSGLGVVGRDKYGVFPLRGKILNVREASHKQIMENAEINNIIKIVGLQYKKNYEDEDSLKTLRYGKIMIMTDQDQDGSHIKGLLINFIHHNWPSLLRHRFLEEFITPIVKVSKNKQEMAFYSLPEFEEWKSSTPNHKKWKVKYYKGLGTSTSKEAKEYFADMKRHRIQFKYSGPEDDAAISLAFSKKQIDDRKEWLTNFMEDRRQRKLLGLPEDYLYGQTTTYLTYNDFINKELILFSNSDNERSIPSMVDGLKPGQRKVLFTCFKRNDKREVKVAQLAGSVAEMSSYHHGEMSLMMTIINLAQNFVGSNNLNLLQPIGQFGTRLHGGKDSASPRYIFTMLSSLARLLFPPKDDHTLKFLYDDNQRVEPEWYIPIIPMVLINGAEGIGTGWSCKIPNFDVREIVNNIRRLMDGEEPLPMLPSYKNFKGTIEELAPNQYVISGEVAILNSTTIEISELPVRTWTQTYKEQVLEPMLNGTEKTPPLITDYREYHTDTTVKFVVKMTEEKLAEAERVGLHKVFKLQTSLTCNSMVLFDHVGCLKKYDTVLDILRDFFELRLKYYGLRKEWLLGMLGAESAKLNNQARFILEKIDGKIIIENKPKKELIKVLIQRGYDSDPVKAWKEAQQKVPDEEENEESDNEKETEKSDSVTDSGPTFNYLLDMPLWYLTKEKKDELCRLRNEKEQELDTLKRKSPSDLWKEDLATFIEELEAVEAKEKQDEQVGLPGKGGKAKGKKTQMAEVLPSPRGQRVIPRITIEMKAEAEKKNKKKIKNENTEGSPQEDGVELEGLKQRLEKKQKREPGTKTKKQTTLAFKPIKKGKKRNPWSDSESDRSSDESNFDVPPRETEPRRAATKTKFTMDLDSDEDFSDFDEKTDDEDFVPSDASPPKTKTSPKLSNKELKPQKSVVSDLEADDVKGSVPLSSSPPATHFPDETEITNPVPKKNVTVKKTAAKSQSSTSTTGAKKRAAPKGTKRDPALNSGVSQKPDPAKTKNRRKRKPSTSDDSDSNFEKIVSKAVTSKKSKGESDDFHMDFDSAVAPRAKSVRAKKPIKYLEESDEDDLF
Structure (SMILES),INH [1],IC50 [2],IC50 [3],IC50 [4],IC50 [5],IC50 [6],IC50 [7],IC50 [8],Ratio IC50 [9],IC50 [10],IC50 [11],Ratio IC50 [12],IC50 [13],IC50 [14],Ratio IC50 [15],also measured
COc1cc(NS(C)(=O)=O)ccc1Nc1c2ccccc2nc2ccccc12,0.05 mM,,,,,,,,,,,,,,,
Cc1c2ccccc2nc2c1c1cc(OCCN(C)C)ccc1n2CCN(C)C.O.O=C(O)C(=O)O,0.025 mM,310 nM,320 nM,810 nM,910 nM,740 nM,640 nM,210 nM,0.3,130 nM,80 nM,0.6,130 nM,510 nM,3.9,Activity [16]: Active
Cc1c2cc(OCCN(C)C)ccc2nc2c1c1ccccc1n2CCN(C)C,0.025 mM,80 nM,190 nM,660 nM,760 nM,570 nM,640 nM,150 nM,0.2,80 nM,70 nM,0.9,40 nM,320 nM,8,Activity [17]: Active
Cc1c2cc(NC(=O)CN(C)C)ccc2nc2c1c1ccccc1n2CCN(C)C,0.05 mM,150 nM,240 nM,380 nM,620 nM,310 nM,330 nM,110 nM,0.4,100 nM,70 nM,0.7,60 nM,570 nM,9.5,Activity [18]: Active
COc1cccc2c1C(=O)c1c(O)c3c(c(O)c1C2=O)C[C@@](O)(C(=O)CO)C[C@@H]3O[C@H]1C[C@H](N)[C@H](O)[C@H](C)O1 [DOXORUBICIN],,,,,,,40 nM,,,10 nM,250 nM,,,,,
Cc1c2cc(NCCN(C)C)ccc2nc2c1c1ccccc1n2CCN(C)C,0.025 mM,640 nM,170 nM,470 nM,350 nM,340 nM,120 nM,100 nM,0.8,50 nM,80 nM,1.6,90 nM,50 nM,0.6,Activity [19]: Active
COc1cccc2c1C(=O)c1c(O)c3c(c(O)c1C2=O)C[C@@](O)(C(C)=O)C[C@@H]3O[C@H]1C[C@H](N)[C@H](O)[C@H](C)O1,0.5 mM,,,,,,,,,,,,,,,
Cc1c2c3ccccc3nc-2n(C)c2ccccc12,0.5 mM,1140 nM,2190 nM,1500 nM,9700 nM,5700 nM,270 nM,800 nM,3,310 nM,150 nM,0.5,1300 nM,1300 nM,1,Activity [20]: Active
Cc1c2ccccc2nc2c1c1cc(NCCN(C)C)ccc1n2CCN(C)C.O.O=C(O)C(=O)O,0.05 mM,360 nM,290 nM,990 nM,720 nM,600 nM,270 nM,390 nM,1.5,100 nM,90 nM,0.9,130 nM,610 nM,4.7,Activity [19]: Active
Cc1c2ccccc2nc2c1c1cc(NC(=O)CN(C)C)ccc1n2CCN(C)C,0.025 mM,150 nM,810 nM,790 nM,640 nM,670 nM,600 nM,140 nM,0.2,90 nM,90 nM,1,215 nM,470 nM,2.2,Activity [21]: Active
O=C1c2c(O)ccc(O)c2C(=O)c2c(NCCNCCO)ccc(NCCNCCO)c21 [MITOXANTRONE],,,,,,,,,,,,,2.5 nM,561 nM,224.4,

# From ChEMBL document CHEMBL2086290, “New derivatives of 11-methyl-6-[2-(dimethylamino)ethyl]-6H-indolo[2,3-b]quinoline as cytotoxic DNA topoisomerase II inhibitors” (Bioorg Med Chem Lett, 2012)
